In patent publication US5807861A, “Amine substituted xanthinyl compounds” (Cell Therapeutics, Inc., priority 1995, dated 1998):

Columns and labels:
293-EBNA cells = assay: 293-EBNA cell viability (alamarBlue); assay type: cell-based
Experimental: The effect of respective inventive compounds on the viability of 293-EBNA cells was measured by a colorimetric assay that uses the alamarBlue® dye (purchased from Alamar Biosciences, Inc.) to report cell proliferation, viability and cytotoxicity. This dye is an oxidation-reduction (Redox) indicator that changes color in response to chemical reduction of growth medium resulting from cell growth. The general procedure involves adding alamar-Blue® in an amount equal to 10% of the culture volume, returning the culture to incubator for four hours, and measuring the absorbance at 570 nm after subtraction of background absorbance at 600 nm.

Balb/3T3 cells = assay: Balb/3T3 viability (cytotoxicity) assay with BCECF; assay type: cell-based; details: BCECF fluorescence; concentrations shown in FIGS. 1, 2 and 4; control value of 100%
Experimental: In conjunction with the Balb/3T3 proliferation assay, a related viability assay was conducted to assess the cytotoxicity of compounds which inhibit proliferation in this system. The assay protocol was identical to that performed above except that tritiated thymidine was not added after the 24 hour incubation with PDGF. In this cytotoxicity assay, after incubating the cells, a 10 μM solution of BCECF was added and the cells were incubated for 30 minutes at 37° C. Following this incubation, BCECF was replaced with PBS and the plate read for fluorescence in a Millipore cytofluorometer. Data obtained was plotted as a percent of control versus concentration of inventive compound tested. FIGS. 3 and 5 represent the results of this viability assay, for compounds nos. 3556 and 4500, respectively.

[1] = system: mouse bone marrow cells (CFU-GM); assay: CFU-GM colony assay, effect on normal mouse bone marrow cells; assay type: cell-based; details: for cytotoxicity to normal mouse marrow cells: 8 h incubation, 7 days colony growth; for effect on normal cells compared to known chemotherapeutic compounds: in vitro, vs vinblastine, 5-fluorouracil, doxorubicin or cisplatinum
Excerpt: This example illustrates a method for examining an effect of the inventive compounds, showing potential as cancer therapies, on normal cells. This assay has been used clinically to evaluate recovery of patients' marrow following chemotherapy or radiation. In this specific example, inventive compounds nos.
Mouse bone marrow cells are useful in this assay because they produce colonies, which can later be counted, in culture. The colonies are called colony forming unit-granulocyte macrophage (CFU-GM) and depend on a source of colony stimulating factor for growth.
Cells were cultured with inventive compounds nos. 3563, 3576, 3581, 3584 and 4500, to comparatively evaluate an effect on normal cells of inventive compounds identified as potential cancer therapies. Procedurally, cells were incubated for 8 hours with various concentrations of these compounds. A negative control without any compound was simultaneously prepared. After 8 hours, the incubated cells were washed thoroughly and a consistent number were subsequently plated to obtain CFU-GM. Colonies were permitted to grow for 7 days at 37° C., in 5% CO2. After 7 days of growth, colony growths were counted microscopically. Data obtained in this assay for inventive compounds nos. 3563, 3576, 3581, 3584 and 4500 are plotted in FIGS. 12, 13, 14, 15 and 16, respectively. The data in the figures are shown to compare the colonies counted for cells incubated with varying concentrations of the compounds tested against the negative control, without compound. At concentrations ranging from 5 to 30 μM, more colonies existed for cells incubated with the inventive potential cancer compound than with known, chemotherapeutic agents. Compound no.

human stromal cells [2] = assay: PDGF-induced proliferation in human stromal cells; assay type: cell-based; details: 50 ng/ml PDGF; compound added one hour prior; various concentrations (FIG. 1)
Experimental: 3506 on PDGF-induced proliferation in human stromal cells. Procedurally, human stromal cells were starved in serum-free media for 24 hours and then stimulated with 50 ng/ml PDGF. Compound no. 3506 was added at various concentrations one hour prior to PDGF stimulation and pulsed for 24 hours. Cells were harvested and cell proliferation measured having background counts (i.e., starved cells) at about 10% of control levels.

thymocytes = assay: thymocyte proliferation co-stimulated with Con A and IL-2; assay type: cell-based, mouse (Balb/C); details: co-stimulated with Con A and IL-2, various concentrations
Experimental: 3506, 3556, 3563, 3576, 3581, 3582 and 3584 on thymocyte proliferation and activation, co-stimulated with Concanavalin A (Con A) and interleukin-2 (IL-2), at various concentrations of the compounds (IC50). Con A and IL-2 together stimulate T cell proliferation and differentiation.
Thymuses, obtained from normal, female Balb/C mice, were dissociated and plated into 96-well plates at a density of 2×10^5 cells/well. Con A ([…]) and IL-2 (15 U/ml) were added to the wells. The cells were incubated for 4 days at 37° C. On day 4, the cells were pulsed with tritiated thymidine and incubated for an additional 4 hours. Incorporated tritiated thymidine of harvested cells was determined in a liquid scintillation counter. Results plotted as dose concentration versus proliferation for inventive compounds nos. 3506, 3556, 3563, 3576, 3581, 3582 and 3584 are shown in FIGS. 6 (3506), 7 (3556), 8 (3563), 9 (3576), 10 (3581 and 3582) and 11 (3584). Respective concentrations of inventive compound (shown in the figures) were added two hours prior to Con A and IL-2 activation. Background counts were less than 200 cpm.

[3] = system: mouse femoral marrow CFU-GM; details: in vivo
Excerpt: Mouse spleen conditioned-medium, at a concentration of 2%, was used in this assay. The medium and semi-solid culture mix were procured from Stem Cell Technologies in Vancouver, BC.

human stromal cells [4] = assay: Comparative: PDGF-BB-induced proliferation in human stromal cells; assay type: cell-based; details: 50 ng/ml PDGF-BB; drugs added one hour prior (FIG. 23)
Experimental: Human stromal cells were starved in serum-free media for 24 hours and then stimulated with 50 ng/ml PDGF-BB. The drugs were added at various concentrations one hour prior to PDGF stimulation. Tritiated thymidine was added at the time of PDGF stimulation and pulsed for 24 hours. Cells were harvested and cell proliferation measured (FIG. 23). Background counts (i.e., starved cells) were about 10% of control levels.

[5] = system: polymorphonuclear leukocytes; details: U.S. Pat. No. 4,636,507; cited from earlier work
JR-CSF strain of HIV-1 = assay: JR-CSF HIV-1 infection of human peripheral blood lymphocytes (p24 antigen ELISA); assay type: cell-based, HIV-1 (in human PBL); details: 10 and 20 μM
Experimental: In a protocol for infecting a PBL cell suspension, JR-CSF HIV-1 was clarified at low-speed centrifugation (2,000-3,000 rpm) or filtration and stored in aliquots at -70° C. To maintain consistent titers, HIV-1 aliquots were not subjected to repeated freezing and thawing and any remainder was discarded. Virus aliquots were thawed at room temperature or under cold running water for more rapid thawing and maintained in ice after thawing. Just prior to infection of PBL cells, the supernatant or dilution were warmed to room temperature.
Human PBL cells taken from a suitable donor were centrifuged down at 1000 rpm for 5-10 minutes at room temperature. While cells were spinning, the virus inoculum was prepared in medium by adding 10 μg/ml Polybrene®. The centrifuged cells were resuspended in virus inoculum, using 1 ml of virus inoculum per 10^7 cells. A more efficient HIV-1 infection is obtained with smaller amounts of inoculum. The cells were incubated at 37° C. in the presence of virus inoculum for 2 hours, shaking the suspension every half hour. After 2 hours, the suspension was spun down, the virus inoculum removed and the cells were washed with 10 ml of fresh media.
The infected cells, inoculated with virus at a concentration of 10 ng virus/10^6 PBL, were washed and resuspended in growth medium ([…] RPMI/20 % FBS/10 units/ml IL-2). […]

PAPH = details: specific activation pathway that does not involve PI; cited from earlier work
[6] = system: tumor necrosis factor (TNF); details: PTX recipients; cited from earlier work
certain cytokines = details: U.S. Pat. Nos. 4,965,271 and 5,096,906; cited from earlier work

What does the source list for `CCCCCCN(C)CCCCCCCCCCCn1c(=O)c2c(ncn2C)n(C)c1=O` [compound 4500]?
concentration at which there is still little cytotoxicity (293-EBNA cells): > 32 µM; cytotoxicity at the concentrations that inhibit proliferation (Balb/3T3 cells): not cytotoxic to any cells; cytotoxicity to normal mouse marrow cells [1]: virtually no toxicity at elevated concentrations for the normal mouse marrow cells

With `CCCCCCCCCCCNCCCCCCn1c(=O)c2c(ncn2C)n(C)c1=O` [Compound no. 3506] as the compound, how does the “inhibition of PDGF-induced proliferation” value (human stromal cells [2]) read?
The value was “inhibition of PDGF-induced proliferation”.

What about the “effect on thymocyte proliferation and activation” value (thymocytes) of the same compound?
The value was “inhibitive effect”.

Which “CFU-GM detectable in mouse femoral marrow” value [3] does the source give for `O=c1[nH]cc(F)c(=O)[nH]1` [5-fluorouracil] here?
The value was “no CFU-GM were detectable”.

For `CCCCCCCCCCCCN(C)CCCCCCCCCCCn1c(=O)c2c(ncn2C)n(C)c1=O` [compound 3576], which “effect on thymocyte proliferation and activation” value (thymocytes) is on record?
Its value is “inhibitive effect”.

What about the “effect on normal cells compared to known chemotherapeutic compounds” value [1] of the same compound?
The value was “less deleterious to normal cells”.

Which “concentration at which there is still little cytotoxicity” value (293-EBNA cells) does the source give for `CCCCCCN(CCCCCC)CCCCCCCCCCCn1c(=O)c2c(ncn2C)n(C)c1=O` [compound 3590] here?
The value was > 32 µM.

For `CCCCCCCCCCCCNCCCCCCCCCCCn1c(=O)c2c(ncn2C)n(C)c1=O` [Compound no. 3563], which “effect on thymocyte proliferation and activation” value (thymocytes) is on record?
Its value is “inhibitive effect”.

And the “cytotoxicity to normal mouse marrow cells” value [1]?
Its value is “most cytotoxic to proliferative potential of the mouse marrow cells”.

And the “effect on normal cells compared to known chemotherapeutic compounds” value [1]?
Its value is “less deleterious to normal cells”.

For `CCCCCCCCCCCCCCNCCCCCCCCCCCn1c(=O)c2c(ncn2C)n(C)c1=O` [compound 3582], which “effect on thymocyte proliferation and activation” value (thymocytes) is on record?
Its value is “inhibitive effect”.

For `CC(CCCCn1c(=O)c2c(ncn2C)n(C)c1=O)N(C)C` (centres unmarked) [B, 1-(5-dimethylaminohexyl)-3,7-dimethylxanthine], which “concentrations at which activity on PDGF-induced proliferation is apparent” value (human stromal cells [4]) is on record?
The value was “millimolar concentrations”.

For `CC(O)CCCCn1c(=O)c2c(ncn2C)n(C)c1=O` (centres unmarked) [M1, 1-(5-hydroxyhexyl)-3,7-dimethylxanthine], which “chemotaxis in polymorphonuclear leukocytes responding to chemotaxis stimulation” value [5] is on record?
The value was “enhance chemotaxis”.

Which “effect on thymocyte proliferation and activation” value (thymocytes) does the source give for `CCCCCCCCCCCCCCCCNCCCCCCCCCCCn1c(=O)c2c(ncn2C)n(C)c1=O` [compound 3584] here?
The value was “inhibitive effect”.

What about the “effect on normal cells compared to known chemotherapeutic compounds” value [1] of the same compound?
The value was “less deleterious to normal cells”.

What does the source list for `CCCCCCCCNCCCCCCCCCCCn1c(=O)c2c(ncn2C)n(C)c1=O` [compound 3556, 1-(11-octylaminoundecyl)-3,7-dimethylxanthine]?
concentration at which cytotoxicity becomes significant (293-EBNA cells): > 10 µM; cytotoxicity at the concentrations that inhibit proliferation (Balb/3T3 cells): not cytotoxic to any cells; effect on thymocyte proliferation and activation (thymocytes): inhibitive effect; effect on HIV-1 viral infection (JR-CSF strain of HIV-1): virtually eliminated viral infection

With `CC(=O)CCCCn1c(=O)c2c(ncn2C)n(C)c1=O` [PTX, 1-(5-oxohexyl)-3,7-dimethylxanthine] as the compound, how does the “effect on PAPH” value (PAPH) read?
The value was “blocks PAPH”.

What about the “chemotaxis in polymorphonuclear leukocytes responding to chemotaxis stimulation” value [5] of the same compound?
Its value is “enhance chemotaxis”.

And the “TNF levels in normal volunteers” value [6]?
The value was “TNF levels were higher”.

And the “effect on activity of certain cytokines to affect chemotaxis” value (certain cytokines)?
Its value is “inhibit activity of certain cytokines”.

With `COc1cc(CNCCCCCCCCCCCn2c(=O)c3c(ncn3C)n(C)c2=O)cc(OC)c1OC` [compound 3593] as the compound, how does the “concentration at which there is still little cytotoxicity” value (293-EBNA cells) read?
The value was > 32 µM.

With `CC(=O)CCCCCCn1c(=O)c2c(ncn2C)n(C)c1=O` [A, 1-(7-oxooctyl)-3,7-dimethylxanthine] as the compound, how does the “concentrations at which activity on PDGF-induced proliferation is apparent” value (human stromal cells [4]) read?
Its value is “millimolar concentrations”.

With `CCCCCCCCCCNCCCCCCCCCCCn1c(=O)c2c(ncn2C)n(C)c1=O` [compound 3581] as the compound, how does the “effect on thymocyte proliferation and activation” value (thymocytes) read?
The value was “inhibitive effect”.

What about the “effect on normal cells compared to known chemotherapeutic compounds” value [1] of the same compound?
The value was “less deleterious to normal cells”.
